Laboratory results taken from publication PMC12216609, “Inhibitors of eIF1A-ribosome interaction unveil uORF-dependent regulation of translation initiation and antitumor and antiviral effects” (The EMBO Journal, 2025).
“And” between values parts separate entries of the source, which are not always exact repeats. Equal values may be shown once.

target: T1, eIF1A (Homo sapiens, UniProt P47813); assay: not given; format: binding; settings: 1Ai conc. 0.25 uM; background-corrected, relative to DMSO or lowest 1Ai concentration; replicate columns
T1 construct: His-bdSUMO (cleaved yes); made in house; host or cells: E. coli BL-21
T1 sequence (P47813 whole entry): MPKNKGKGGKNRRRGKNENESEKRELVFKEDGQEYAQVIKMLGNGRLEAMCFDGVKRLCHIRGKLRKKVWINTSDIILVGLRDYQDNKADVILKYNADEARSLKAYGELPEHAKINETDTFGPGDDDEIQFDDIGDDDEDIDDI

SMILES | fluorescence ratio, eIF1A
CCOC(=O)c1ccsc1NC(=O)CN1C(=O)NC(C)(c2cccc3ccccc23)C1=O (stereo not shown) [1Ai-1861] | 1.039 and 0.974

same assay, conditions: 1Ai conc. 0.5 uM; background-corrected, relative to DMSO or lowest 1Ai concentration; replicate columns

SMILES | fluorescence ratio, eIF1A
CCOC(=O)c1ccsc1NC(=O)CN1C(=O)NC(C)(c2cccc3ccccc23)C1=O (stereo not shown) [1Ai-1861] | 1.136 and 0.9941

same assay, conditions: 1Ai conc. 1 uM; background-corrected, relative to DMSO or lowest 1Ai concentration; replicate columns

SMILES | fluorescence ratio, eIF1A
CCOC(=O)c1ccsc1NC(=O)CN1C(=O)NC(C)(c2cccc3ccccc23)C1=O (stereo not shown) [1Ai-1861] | 1.143 and 0.9966

same assay, conditions: 1Ai conc. 2 uM; background-corrected, relative to DMSO or lowest 1Ai concentration; replicate columns

SMILES | fluorescence ratio, eIF1A
CCOC(=O)c1ccsc1NC(=O)CN1C(=O)NC(C)(c2cccc3ccccc23)C1=O (stereo not shown) [1Ai-1861] | 1.167 and 0.9386

same assay, conditions: 1Ai conc. 4 uM; background-corrected, relative to DMSO or lowest 1Ai concentration; replicate columns

SMILES | fluorescence ratio, eIF1A
CCOC(=O)c1ccsc1NC(=O)CN1C(=O)NC(C)(c2cccc3ccccc23)C1=O (stereo not shown) [1Ai-1861] | 1.169 and 0.9347

same assay, conditions: 1Ai conc. 8 uM; background-corrected, relative to DMSO or lowest 1Ai concentration; replicate columns

SMILES | fluorescence ratio, eIF1A
CCOC(=O)c1ccsc1NC(=O)CN1C(=O)NC(C)(c2cccc3ccccc23)C1=O (stereo not shown) [1Ai-1861] | 1.065 and 0.8919

same assay, conditions: 1Ai conc. 16 uM; background-corrected, relative to DMSO or lowest 1Ai concentration; replicate columns

SMILES | fluorescence ratio, eIF1A
CCOC(=O)c1ccsc1NC(=O)CN1C(=O)NC(C)(c2cccc3ccccc23)C1=O (stereo not shown) [1Ai-1861] | 1.1254 and 0.8973

same assay, conditions: 1Ai conc. 32 uM; background-corrected, relative to DMSO or lowest 1Ai concentration; replicate columns

SMILES | fluorescence ratio, eIF1A
CCOC(=O)c1ccsc1NC(=O)CN1C(=O)NC(C)(c2cccc3ccccc23)C1=O (stereo not shown) [1Ai-1861] | 1.149 and 0.9563

same assay, conditions: 1Ai conc. 64 uM; background-corrected, relative to DMSO or lowest 1Ai concentration; replicate columns

SMILES | fluorescence ratio, eIF1A
CCOC(=O)c1ccsc1NC(=O)CN1C(=O)NC(C)(c2cccc3ccccc23)C1=O (stereo not shown) [1Ai-1861] | 1.304 and 0.9843

same assay, conditions: 1Ai conc. 256 uM; background-corrected, relative to DMSO or lowest 1Ai concentration; replicate columns

SMILES | fluorescence ratio, eIF1A
CCOC(=O)c1ccsc1NC(=O)CN1C(=O)NC(C)(c2cccc3ccccc23)C1=O (stereo not shown) [1Ai-1861] | 1.359 and 0.9897

same assay, conditions: eIF1A; from the titration data; read-out: IC50 (eIF1A titration block)

SMILES | IC50 [µM]
CCOC(=O)c1ccsc1NC(=O)CN1C(=O)NC(C)(c2cccc3ccccc23)C1=O (stereo not shown) [1Ai-1861] | 71

same assay, conditions: fluorescence binding

SMILES | WT eIF1A IC50
CCOC(=O)c1ccsc1NC(=O)CN1C(=O)NC(C)(c2cccc3ccccc23)C1=O (stereo not shown) [1Ai-1861] | No binding

same assay, conditions: summary table; fluorescence binding assay

SMILES | IC50 concentration (µM), WT eIF1A
CCOC(=O)c1ccsc1NC(=O)CN1C(=O)NC(C)(c2cccc3ccccc23)C1=O (stereo not shown) [1Ai-1861] | No binding

target: T2, RPS10 (Homo sapiens, UniProt P46783); assay: not given; format: binding; settings: 1Ai conc. 0.25 uM
T2 construct: made in house; host or cells: E. coli BL-21

SMILES | RPS10 fluorescence ratio to control
CCOC(=O)c1ccsc1NC(=O)CN1C(=O)NC(C)(c2cccc3ccccc23)C1=O (stereo not shown) [1Ai-1861] | 1

same assay, conditions: 1Ai conc. 0.5 uM

SMILES | RPS10 fluorescence ratio to control
CCOC(=O)c1ccsc1NC(=O)CN1C(=O)NC(C)(c2cccc3ccccc23)C1=O (stereo not shown) [1Ai-1861] | 0.8226

same assay, conditions: 1Ai conc. 1 uM

SMILES | RPS10 fluorescence ratio to control
CCOC(=O)c1ccsc1NC(=O)CN1C(=O)NC(C)(c2cccc3ccccc23)C1=O (stereo not shown) [1Ai-1861] | 0.9775

same assay, conditions: 1Ai conc. 2 uM

SMILES | RPS10 fluorescence ratio to control
CCOC(=O)c1ccsc1NC(=O)CN1C(=O)NC(C)(c2cccc3ccccc23)C1=O (stereo not shown) [1Ai-1861] | 0.7185

same assay, conditions: 1Ai conc. 4 uM

SMILES | RPS10 fluorescence ratio to control
CCOC(=O)c1ccsc1NC(=O)CN1C(=O)NC(C)(c2cccc3ccccc23)C1=O (stereo not shown) [1Ai-1861] | 0.4957

same assay, conditions: 1Ai conc. 8 uM

SMILES | RPS10 fluorescence ratio to control
CCOC(=O)c1ccsc1NC(=O)CN1C(=O)NC(C)(c2cccc3ccccc23)C1=O (stereo not shown) [1Ai-1861] | 0.1947

same assay, conditions: 1Ai conc. 16 uM

SMILES | RPS10 fluorescence ratio to control
CCOC(=O)c1ccsc1NC(=O)CN1C(=O)NC(C)(c2cccc3ccccc23)C1=O (stereo not shown) [1Ai-1861] | 0.1506

same assay, conditions: 1Ai conc. 32 uM

SMILES | RPS10 fluorescence ratio to control
CCOC(=O)c1ccsc1NC(=O)CN1C(=O)NC(C)(c2cccc3ccccc23)C1=O (stereo not shown) [1Ai-1861] | 0.08052

same assay, conditions: 1Ai conc. 64 uM

SMILES | RPS10 fluorescence ratio to control
CCOC(=O)c1ccsc1NC(=O)CN1C(=O)NC(C)(c2cccc3ccccc23)C1=O (stereo not shown) [1Ai-1861] | 0.3768

same assay, conditions: 1Ai conc. 256 uM

SMILES | RPS10 fluorescence ratio to control
CCOC(=O)c1ccsc1NC(=O)CN1C(=O)NC(C)(c2cccc3ccccc23)C1=O (stereo not shown) [1Ai-1861] | 0.398

same assay, conditions: read-out: IC50 (line under RPS10 binding data)

SMILES | IC50 [µM]
CCOC(=O)c1ccsc1NC(=O)CN1C(=O)NC(C)(c2cccc3ccccc23)C1=O (stereo not shown) [1Ai-1861] | 3.7

same assay, conditions: read-out: RPS10 IC50

SMILES | IC50 [µM]
CCOC(=O)c1ccsc1NC(=O)CN1C(=O)NC(C)(c2cccc3ccccc23)C1=O (stereo not shown) [1Ai-1861] | 3.7

same assay, conditions: summary table; fluorescence binding assay; read-out: IC50 concentration (µM), RPS10

SMILES | IC50 [µM]
CCOC(=O)c1ccsc1NC(=O)CN1C(=O)NC(C)(c2cccc3ccccc23)C1=O (stereo not shown) [1Ai-1861] | 3.7

system: CUG/GUG vs AUG start codon luciferase reporters in HEK293T cells; assay: Near-cognate AUG starting codon fidelity reporter assay (GUG, CUG vs AUG); format: cell-based; settings: CUG start codon reporter relative to AUG reporter (AUG = 100); compound at 20uM (summary head); single-experiment calculation

SMILES | CUG vs AUG (%)
CCOC(=O)c1ccsc1NC(=O)CN1C(=O)NC(C)(c2cccc3ccccc23)C1=O (stereo not shown) [1Ai-1861] | 14.0136

same assay, conditions: GUG start codon reporter relative to AUG reporter (AUG = 100); compound at 20uM (summary head); single-experiment calculation

SMILES | GUG vs AUG (%)
CCOC(=O)c1ccsc1NC(=O)CN1C(=O)NC(C)(c2cccc3ccccc23)C1=O (stereo not shown) [1Ai-1861] | 2.535

same assay, conditions: NUG experiment

SMILES | average CUG and GUG | average CUG and GUG relative to DMSO
CCOC(=O)c1ccsc1NC(=O)CN1C(=O)NC(C)(c2cccc3ccccc23)C1=O (stereo not shown) [1Ai-1861] | 6.257 | 1.387

same assay, conditions: NUG experiment, CUG vs AUG reporter

SMILES | CUG Average
CCOC(=O)c1ccsc1NC(=O)CN1C(=O)NC(C)(c2cccc3ccccc23)C1=O (stereo not shown) [1Ai-1861] | 9.413

same assay, conditions: NUG experiment, GUG vs AUG reporter

SMILES | GUG Average
CCOC(=O)c1ccsc1NC(=O)CN1C(=O)NC(C)(c2cccc3ccccc23)C1=O (stereo not shown) [1Ai-1861] | 3.101

same assay, conditions: average CUG and GUG relative to DMSO; 20 µM overnight

SMILES | NUG (Final data, Fig. 1E)
CCOC(=O)c1ccsc1NC(=O)CN1C(=O)NC(C)(c2cccc3ccccc23)C1=O (stereo not shown) [1Ai-1861] | 1.387

same assay, conditions: compound at 20uM; individual repeat

SMILES | GUG vs AUG data (%)
CCOC(=O)c1ccsc1NC(=O)CN1C(=O)NC(C)(c2cccc3ccccc23)C1=O (stereo not shown) [1Ai-1861] | 2.64% and 2.15% and 3.17% and 4.44%

same assay, conditions: compound at 20uM; summary average of repeats; DMSO control average […]

SMILES | GUG vs AUG (%) Average [%]
CCOC(=O)c1ccsc1NC(=O)CN1C(=O)NC(C)(c2cccc3ccccc23)C1=O (stereo not shown) [1Ai-1861] | 3.10

system: cap-proximal AUG GFP reporter in HEK293T cells; assay: not given; format: cell-based; settings: GFP WB densitometry; 20 µM overnight; dmso 0.965946;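 further: ratio of upstream to downstream AUG initiation products on GFP Western blot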

SMILES | US/DS ratio, average
CCOC(=O)c1ccsc1NC(=O)CN1C(=O)NC(C)(c2cccc3ccccc23)C1=O (stereo not shown) [1Ai-1861] | 0.86

system: IRF7 5'UTR firefly luciferase reporter in HEK293T cells; assay: not given; settings: 1/Result, relative to DMSO; 20 µM;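 further: luciferase signal corrected by a co-transfected GFP reporter for transfection efficiency, read after overnight compound exposure, with Long and Short reporters differing in 5'UTR length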

SMILES | Reference vs IRF7 (Final data, Fig. 1E)
CCOC(=O)c1ccsc1NC(=O)CN1C(=O)NC(C)(c2cccc3ccccc23)C1=O (stereo not shown) [1Ai-1861] | 1.411

same assay, conditions: Long reporter, 20 µM, individual replicates, outliers excluded, DMSO = 1

SMILES | LONG (summary - All), normalized to DMSO
CCOC(=O)c1ccsc1NC(=O)CN1C(=O)NC(C)(c2cccc3ccccc23)C1=O (stereo not shown) [1Ai-1861] | 0.0542 and 0.33 and 0.67 and 0.24

same assay, conditions: Short reporter, 20 µM, individual replicates, outliers excluded, DMSO = 1

SMILES | SHORT (summary - All), normalized to DMSO
CCOC(=O)c1ccsc1NC(=O)CN1C(=O)NC(C)(c2cccc3ccccc23)C1=O (stereo not shown) [1Ai-1861] | 0.28 and 0.35 and 0.52 and 0.68

same assay, conditions: summary - All, 20 µM

SMILES | average ( long vs short ratio)
CCOC(=O)c1ccsc1NC(=O)CN1C(=O)NC(C)(c2cccc3ccccc23)C1=O (stereo not shown) [1Ai-1861] | 0.709
